In publication PMC2923493 (Tetrahedron, 2010):
Where two headings read alike, the source gives them in different places.

Columns and labels:
[1] = system: HT-29 human colon cancer cells; assay: Cytotoxicity assay; type: cell-based; conditions: HT-29 cells, three days
[2] = target: T1, chymotrypsin-like proteasome activity (Homo sapiens, UniProt P28074); assay: Proteasome inhibition assay; type: biochemical
T1 sequence (P28074 60-263): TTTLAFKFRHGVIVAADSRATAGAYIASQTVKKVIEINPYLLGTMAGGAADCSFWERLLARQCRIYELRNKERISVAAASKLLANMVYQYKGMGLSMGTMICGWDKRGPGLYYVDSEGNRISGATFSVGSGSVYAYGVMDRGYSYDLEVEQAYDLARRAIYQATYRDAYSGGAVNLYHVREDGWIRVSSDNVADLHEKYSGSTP

[3] = system: LNCaP, HT-29, MCF-7 and MDA-MB 435 human cancer cells; assay: In vivo hollow fiber assay; conditions: highest dose tested (20 mg/kg), mice, intraperitoneal, all cell lines
human SPC-A1 cell [4] = conditions: cited from earlier work
human SPC-A1 cell [5] = conditions: cited from earlier work; remark: listed apart in the source
[6] = read-out: Proteasome Inhibition IC50, Suc-LLVY-AMC 10 μM

| IC50 [2, 6] [µM] | Molecule | Cytotoxicity ED50 [1] [µM] | also measured |
| --- | --- | --- | --- |
|  | CC1(C)Oc2c(cc3c(=O)c4c(O)cc(O)cc4oc3c2O)[C@H](O)[C@H]1O [Compound 2, (3R,4S)-3,4,7,9,12-pentahydroxy-2,2-dimethyl-3,4-dihydropyrano[3,2-b]xanthen-6(2H)-one] | >10 |  |
| > 10 | CC(C)=CCc1c(O)c(CC=C(C)C)c2c(c1O)C(=O)C1=C[C@H]3C[C@@H]4C(C)(C)O[C@@](C/C=C(/C)C(=O)O)(C3=O)[C@@]14O2 [Compound 4, isogaudichaudiic acid] | 3.2 |  |
| > 10 | C=C(C)C(O)Cc1c2c(c(O)c3c1O[C@]14C(=C[C@H]5C[C@@H]1C(C)(C)O[C@@]4(C/C=C(\C)C(=O)O)C5=O)C3=O)C=CC(C)(C)O2 (some centres unmarked) [Compound 5, isogaudichaudiic acid E] | 2.6 |  |
|  | CC(C)=CCc1c2c(c(O)c3c1O[C@]14C(=C[C@H]5C[C@@H]1C(C)(C)O[C@@]4(C/C=C(/C)C(=O)O)C5=O)C3=O)CC(O)C(C)(C)O2 (stereo partly drawn) [Compound 6, (5R,7S,10aS,27S)-11,12-dihydro-12-hydroxymorellic acid] | 2.9 |  |
|  | O=C1c2c(O)cc(O)cc2O[C@H](c2ccc(O)cc2)[C@H]1c1c(O)cc(O)c2c(=O)cc(-c3ccc(O)c(O)c3)oc12 [Compound 8, morelloflavone] | >10 | IC50 [2]: 1.3 µM |
| 4.4 | O=C1c2c(O)cc(O)cc2O[C@@H](c2ccc(O)cc2)[C@@H]1c1c(O)cc(O)c2c(=O)cc(-c3ccc(O)cc3)oc12 [Compound 9, talbotaflavone] |  |  |
|  | CC(C)=CCC[C@]1(C)C=Cc2c(O)c3c(c(CC=C(C)C)c2O1)O[C@]12C(=C[C@@H]4C[C@H]1C(C)(C)O[C@@]2(C/C=C(/C)C(=O)O)C4=O)C3=O [gambogic acid] |  | Inhibition of SPC-A1 cell growth in vivo (human SPC-A1 cell [4]): inhibited; Inhibition of SPC-A1 cell growth in vitro (human SPC-A1 cell [5]): inhibited |
|  | isogaudichaudiic acid B [Compound 7] | >10 |  |

| Molecule | IC50 [2, 6] [µM] | Cytotoxicity ED50 [1] [µM] | also measured |
| --- | --- | --- | --- |
| CO[C@H]1[C@H]2C(=O)c3c(O)c4c(c(CC=C(C)C)c3O[C@@]23[C@@H]2C[C@H]1C(=O)[C@]3(C/C=C(/C)C(=O)O)OC2(C)C)OC(C)(C)C=C4 [Compound 3, isomoreollic acid] | > 10 | 1.9 |  |
| CC(C)=CCc1c2c(c(O)c3c1O[C@]14C(=C[C@@H]5C[C@H]1C(C)(C)O[C@@]4(C/C=C(/C)C(=O)O)C5=O)C3=O)C=CC(C)(C)O2 [Compound 10, morellic acid] | > 10 | 0.36 | Activity in in vivo hollow fiber assay [3]: inactive |
